Laboratory results as given in patent US20240246967A1, “AXL COMPOUNDS” (ARCUS BIOSCIENCES, INC., priority 2021, published 2024).

Assays:
human MER = biological target: T1, human MER (Homo sapiens, UniProt Q12866); experiment: HTRF KinEASE-TK biochemical potency assay, MER; details: 1 nM MER, 700 μM ATP, 800 nM TK Substrate-biotin
T1 construct: purchased Invitrogen
T1 sequence (Q12866 21-999): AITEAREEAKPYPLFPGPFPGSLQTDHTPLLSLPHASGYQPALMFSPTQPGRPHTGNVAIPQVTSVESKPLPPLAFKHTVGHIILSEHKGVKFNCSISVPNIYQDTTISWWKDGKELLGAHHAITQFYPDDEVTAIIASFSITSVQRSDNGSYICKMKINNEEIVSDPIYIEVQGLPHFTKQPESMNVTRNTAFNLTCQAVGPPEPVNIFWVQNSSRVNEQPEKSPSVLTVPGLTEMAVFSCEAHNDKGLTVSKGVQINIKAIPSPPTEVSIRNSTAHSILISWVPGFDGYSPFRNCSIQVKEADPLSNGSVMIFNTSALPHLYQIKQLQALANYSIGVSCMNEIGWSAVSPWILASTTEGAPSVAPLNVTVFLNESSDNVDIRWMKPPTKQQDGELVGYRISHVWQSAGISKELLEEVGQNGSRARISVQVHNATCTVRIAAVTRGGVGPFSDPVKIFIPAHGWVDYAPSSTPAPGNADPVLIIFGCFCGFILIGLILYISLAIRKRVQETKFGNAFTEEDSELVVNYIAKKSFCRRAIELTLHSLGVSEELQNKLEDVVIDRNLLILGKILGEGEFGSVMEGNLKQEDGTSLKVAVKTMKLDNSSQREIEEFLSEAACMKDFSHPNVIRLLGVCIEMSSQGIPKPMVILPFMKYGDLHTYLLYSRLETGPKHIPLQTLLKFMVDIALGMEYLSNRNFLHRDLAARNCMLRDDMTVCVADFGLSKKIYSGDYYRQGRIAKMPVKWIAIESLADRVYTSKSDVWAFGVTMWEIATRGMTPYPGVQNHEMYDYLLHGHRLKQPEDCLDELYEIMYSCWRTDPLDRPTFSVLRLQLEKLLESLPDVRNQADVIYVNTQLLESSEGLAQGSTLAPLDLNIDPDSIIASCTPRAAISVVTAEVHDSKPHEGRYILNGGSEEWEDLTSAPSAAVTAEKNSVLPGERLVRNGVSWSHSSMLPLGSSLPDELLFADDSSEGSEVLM
Method in brief: (§1)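 Final conditions: 5 nM AXL, 1 nM TYRO3 or MER, 50 mM HEPES pH 7.4, 10 mM MgCl2, 0.01% BSA, 1 mM DTT, 700 μM ATP. Reaction ran 2 h at RT after 1 h preincubation with compound; HTRF signal read at 665/620 nm.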

human TYRO3 = biological target: T2, human TYRO3 (Homo sapiens, UniProt Q06418); experiment: HTRF KinEASE-TK biochemical potency assay, TYRO3; details: 1 nM TYRO3, 700 μM ATP, 800 nM TK Substrate-biotin
T2 construct: purchased Invitrogen
T2 sequence (Q06418 41-890): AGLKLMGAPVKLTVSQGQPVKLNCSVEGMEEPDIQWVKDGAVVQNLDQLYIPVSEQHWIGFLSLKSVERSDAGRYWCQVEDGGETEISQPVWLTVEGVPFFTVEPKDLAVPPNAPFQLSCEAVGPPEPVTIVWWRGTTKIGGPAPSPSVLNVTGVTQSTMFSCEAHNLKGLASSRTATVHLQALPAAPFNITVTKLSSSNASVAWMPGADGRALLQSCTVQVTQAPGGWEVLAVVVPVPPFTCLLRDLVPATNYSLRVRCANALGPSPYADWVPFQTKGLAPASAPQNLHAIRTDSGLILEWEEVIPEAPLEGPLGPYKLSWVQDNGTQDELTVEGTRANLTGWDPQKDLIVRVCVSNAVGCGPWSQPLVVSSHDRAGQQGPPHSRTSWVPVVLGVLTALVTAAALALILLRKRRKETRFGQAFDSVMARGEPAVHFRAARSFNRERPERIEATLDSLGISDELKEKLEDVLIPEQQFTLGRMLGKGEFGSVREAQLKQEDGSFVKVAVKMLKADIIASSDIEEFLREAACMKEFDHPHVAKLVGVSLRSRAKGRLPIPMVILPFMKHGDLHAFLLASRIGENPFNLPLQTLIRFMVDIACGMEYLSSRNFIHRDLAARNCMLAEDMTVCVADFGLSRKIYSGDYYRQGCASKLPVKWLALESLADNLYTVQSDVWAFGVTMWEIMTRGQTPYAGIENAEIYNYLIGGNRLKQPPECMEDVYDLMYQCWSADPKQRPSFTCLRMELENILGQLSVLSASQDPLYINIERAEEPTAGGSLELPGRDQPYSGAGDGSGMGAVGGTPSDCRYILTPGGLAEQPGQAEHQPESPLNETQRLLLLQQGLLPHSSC
Method in brief: as §1

Structure (SMILES)	IC50 (human MER)	IC50 (human TYRO3)
CC(C)(O)c1ccc(-c2n[nH]c3ncc(-c4cc5c(cn4)CCC(N4CCCC4)CC5)cc23)cc1Cl (stereo not shown) [Example 59, 2-(2-Chloro-4-{5-[7-(pyrrolidin-1-yl)-5H,6H,7H,8H,9H-cyclohepta[c]pyridin-3-yl]-1H-pyrazolo[3,4-b]pyridin-3-yl}phenyl)propan-2-ol]	100 to 1000 nM	< 100 nM
CC(C)(O)c1ccc(-c2n[nH]c3ncc(-c4ccc5c(n4)CCC(N4CCCC4)CC5)cc23)cc1Cl (stereo not shown) [Example 60, 2-(2-Chloro-4-{5-[7-(pyrrolidin-1-yl)-5H,6H,7H,8H,9H-cyclohepta[b]pyridin-2-yl]-1H-pyrazolo[3,4-b]pyridin-3-yl}phenyl)propan-2-ol]	100 to 1000 nM	100 to 1000 nM
CC(C)(O)c1ccc(-c2n[nH]c3ncc(-c4ccc5c(c4)CC4CCC(C5)C4N4CCCC4)cc23)cc1Cl (stereo not shown) [Example 61, 2-(2-Chloro-4-{5-[13-(pyrrolidin-1-yl)tricyclo[8.2.1.0^3,8]trideca-3,5,7-trien-5-yl]-1H-pyrazolo[3,4-b]pyridin-3-yl}phenyl)propan-2-ol]	> 1000 nM	> 1000 nM
C[C@@H]1CCCN1C1CCc2ccc(-c3cnc4[nH]nc(-c5ccc(C6(O)CCC6)c(Cl)c5)c4c3)cc2CC1 (stereo partly drawn) [Example 62, 1-[2-Chloro-4-(5-{7-[(2R)-2-methylpyrrolidin-1-yl]-6,7,8,9-tetrahydro-5H-benzo[7]annulen-2-yl}-1H-pyrazolo[3,4-b]pyridin-3-yl)phenyl]cyclobutan-1-ol]	100 to 1000 nM	100 to 1000 nM
C[C@@H]1CCCN1C1CCc2ccc(-c3cnc4[nH]nc(-c5ccc(S(N)(=O)=O)c(Cl)c5)c4c3)cc2CC1 (stereo partly drawn) [Example 94, 2-Chloro-4-(5-(7-((R)-2-methylpyrrolidin-1-yl)-6,7,8,9-tetrahydro-5H-benzo[7]annulen-2-yl)-1H-pyrazolo[3,4-b]pyridin-3-yl)benzenesulfonamide]	100 to 1000 nM	< 100 nM
C[C@@H]1CCCN1C1(C)CCc2ccc(-c3cnc4[nH]nc(-c5ccc(S(N)(=O)=O)cc5)c4c3)cc2CC1 (stereo partly drawn) [Example 95, 4-(5-(7-Methyl-7-((R)-2-methylpyrrolidin-1-yl)-6,7,8,9-tetrahydro-5H-benzo[7]annulen-2-yl)-1H-pyrazolo[3,4-b]pyridin-3-yl)benzenesulfonamide]	100 to 1000 nM	< 100 nM
CC(C)(O)c1ccc(-c2n[nH]c3ncc(-c4ccc5c(c4)CCC4(CCCN4)CC5)cc23)cc1Cl (stereo not shown) [Example 96, 2-[2-Chloro-4-(5-{5,6,8,9-tetrahydrospiro[benzo[7]annulene-7,2′-pyrrolidin]-3-yl}-1H-pyrazolo[3,4-b]pyridin-3-yl)phenyl]propan-2-ol]	> 1000 nM	100 to 1000 nM
C[C@@H]1CCCN1C1CCc2ccc(-c3cnc4[nH]nc(-c5ccc(C(C)(C)O)cn5)c4c3)cc2CC1 (stereo partly drawn) [Example 97, 2-[6-(5-{7-[(2R)-2-Methylpyrrolidin-1-yl]-6,7,8,9-tetrahydro-5H-benzo[7]annulen-2-yl}-1H-pyrazolo[3,4-b]pyridin-3-yl)pyridin-3-yl]propan-2-ol]	> 1000 nM	100 to 1000 nM
C[C@@H]1CCCN1C1(C)CCc2ccc(-c3cnc4[nH]nc(-c5cnc(C(C)(C)O)c(Cl)c5)c4c3)cc2CC1 (stereo partly drawn) [Example 98, 2-[3-Chloro-5-(5-{7-methyl-7-[(2R)-2-methylpyrrolidin-1-yl]-6,7,8,9-tetrahydro-5H-benzo[7]annulen-2-yl}-1H-pyrazolo[3,4-b]pyridin-3-yl)pyridin-2-yl]propan-2-ol]	100 to 1000 nM	100 to 1000 nM
C[C@@H]1CCCN1C1(C)CCc2ccc(-c3cnc4[nH]nc(-c5ccc(C(=O)N[C@@H]6CCOC6)cc5)c4c3)cc2CC1 (stereo partly drawn) [Example 99, 4-(5-{7-Methyl-7-[(2R)-2-methylpyrrolidin-1-yl]-6,7,8,9-tetrahydro-5H-benzo[7]annulen-2-yl}-1H-pyrazolo[3,4-b]pyridin-3-yl)-N-[(3R)-oxolan-3-yl]benzamide]	> 1000 nM	> 1000 nM
CCS(=N)(=O)c1ccc(-c2n[nH]c3ncc(-c4ccc5c(c4)CCC(C)(N4CCC[C@H]4C)CC5)cc23)cc1 (stereo partly drawn) [Example 100, Ethyl(imino)[4-(5-{7-methyl-7-[(2R)-2-methylpyrrolidin-1-yl]-6,7,8,9-tetrahydro-5H-benzo[7]annulen-2-yl}-1H-pyrazolo[3,4-b]pyridin-3-yl)phenyl]-λ^6-sulfanone]	100 to 1000 nM	100 to 1000 nM
C[C@@H]1CCCN1[C@@H]1CCc2cc(-c3cnc4[nH]nc(-c5ccc(S(=O)(=O)C6CC6)cc5)c4c3)cnc2CC1 [Example 101, (2R)-1-(3-{3-[4-(Cyclopropanesulfonyl)phenyl]-1H-pyrazolo[3,4-b]pyridin-5-yl}-5H,6H,7H,8H,9H-cyclohepta[b]pyridin-7-yl)-2-methylpyrrolidine]	> 1000 nM	100 to 1000 nM
C[C@@H]1CCCN1[C@H]1CCc2cc(-c3cnc4[nH]nc(-c5ccc(S(=O)(=O)C6CC6)cc5)c4c3)cnc2CC1 [Example 102, (2R)-1-[(7S)-3-{3-[4-(Cyclopropanesulfonyl)phenyl]-1H-pyrazolo[3,4-b]pyridin-5-yl}-5H,6H,7H,8H,9H-cyclohepta[b]pyridin-7-yl]-2-methylpyrrolidine]	> 1000 nM	> 1000 nM
COC1CCN(S(=O)(=O)c2ccc(-c3n[nH]c4ncc(-c5ccc6c(c5)CCC(C)(N5CCC[C@H]5C)CC6)cc34)cc2)CC1 (stereo partly drawn) [Example 103, 3-(4-((4-Methoxypiperidin-1-yl)sulfonyl)phenyl)-5-(7-methyl-7-((R)-2-methylpyrrolidin-1-yl)-6,7,8,9-tetrahydro-5H-benzo[7]annulen-2-yl)-1H-pyrazolo[3,4-b]pyridine]	> 1000 nM	100 to 1000 nM
C[C@@H]1CCCN1C1(C)CCc2ccc(-c3cnc4[nH]nc(-c5ccc(S(=O)(=O)N6CCC6)cc5)c4c3)cc2CC1 (stereo partly drawn) [Example 104, (2R)-1-(2-{3-[4-(Azetidine-1-sulfonyl)phenyl]-1H-pyrazolo[3,4-b]pyridin-5-yl}-7-methyl-6,7,8,9-tetrahydro-5H-benzo[7]annulen-7-yl)-2-methylpyrrolidine]	100 to 1000 nM	< 100 nM
C[C@@H]1CCCN1C1(C)CCc2ccc(-c3cnc4[nH]cc(-c5ccc(S(=O)(=O)C6CC6)cc5)c4c3)cc2CC1 (stereo partly drawn) [Example 105, (2R)-1-(2-{3-[4-(Cyclopropanesulfonyl)phenyl]-1H-pyrrolo[2,3-b]pyridin-5-yl}-7-methyl-6,7,8,9-tetrahydro-5H-benzo[7]annulen-7-yl)-2-methylpyrrolidine]	> 1000 nM	100 to 1000 nM
C[C@@H]1CCCN1C1(C)CCc2ccc(-c3cnc4[nH]nc(-c5ccc(N6CCOCC6)cc5)c4c3)cc2CC1 (stereo partly drawn) [Example 107, 4-[4-(5-{7-Methyl-7-[(2R)-2-methylpyrrolidin-1-yl]-6,7,8,9-tetrahydro-5H-benzo[7]annulen-2-yl}-1H-pyrazolo[3,4-b]pyridin-3-yl)phenyl]morpholine]	> 1000 nM	100 to 1000 nM
